Laboratory results taken from US20030190322A1, “Immunostimulating properties of a fragment of tgf-beta” (priority 2000, published 2003).
No end group written: not given here.

Key:
parvovirus peptide [1] = assay: ELISA antibody titre to parvovirus peptide in rabbits, TGF-29 dose experiment with Titermax adjuvant (Example 3); format: in vivo; conditions: group with highest dose TGF-29 (20 ug) plus 100 μg parvovirus peptide and Titermax adjuvant (preparation Iris); one rabbit, bleeding T3, 6 weeks after first immunisation
Experimental: Both preparations were subcutaneously injected into 2 groups of rabbits. Each injected dose was 0.1 mL and the preparations for a resulting volume between 0.4 and 0.5 mL was made as follows:
Each injected dose of 0.1 mL therefore contains approximate 4 ug TGF-29 and 100 ug parvovirus peptide.
Into the same vial 154 microliter H2O was added and the combined fractions subsequently mixed by stirring a few seconds and then transferred in drops, while stirring, into a small 1.8 mL plast vial preloaded with 250 microliter Titermax adjuvant. The resulting volume of the water-in-oil emulsion volume was a little more than 0.4 mL. Each injected dose of 0.1 mL therefore contains approximate 20 μg TGF-29 and 100 μg parvovirus peptide.
The rabbits were then immunised according to the normal standard immunisation procedure for antibody production in rabbits at a legal laboratory animal facility.
Before immunisation, a pre-immunisation serum sample (To) of each rabbit was collected. […]
(§1) The serum samples were analysed on an ELISA plate according to standard laboratory operations: Coating the plate bottom with parvo virus peptide derivative overnight, washings, incubation with serial dilutions of all serum samples, washings, incubation with HRP-Goat anti Rabbit 1 g, washings, incubation with substrate, stop reaction with acid, and reading of the plate.

parvovirus peptide [2] = assay: ELISA antibody titre to parvovirus peptide in rabbits immunised with Parv or Parv+TGF-29 (Example 1); format: in vivo; conditions: subcutaneous, 3 immunisations at 2 week intervals, freunds incomplete adjuvant
Experimental: Both preparations were subcutaneously injected into 2 groups of rabbits. The con-tent of each injected dose of 0.2 mL were;
50 microgram parvovirus peptide was dissolved in 0.05 mL PBS and subsequently mixed with 0.05 mL PBS by stirring. The combined fractions were then mixed with 0.1 mL freunds incomplete adjuvant by stirring.
50 microgram parvovirus peptide was dissolved in 0.05 mL PBS and subsequently mixed with 100 microgram of a crude fraction comprising TGF-29 dissolved in 0.05 mL PBS, and then the combined fractions were mixed with 0.1 mL freunds incomplete adjuvant by stirring,
The rabbits were immunised by subcuteous injection according to normal standard immunisation procedures for antibody production in rabbits at a legal laboratory animal facility.
Before immunisation, a pre-immunisation serum sample (T0) of each rabbit were collected. Two weeks after the last of 3 immunisations (given at 2 week intervals) an immune serum sample (T1) was collected from each rabbit. […]
as §1, with “operations.” for “operations:”

Substance: ALDAAYCFRNVQDNCCLRPLYIDFKRDLG (cysteine pairing not given here) [TGF-29]
- titer to the parvovirus peptide compared with T0 serum (highest of all bleedings) (parvovirus peptide [1]): more than three 5-fold serial antiserum dilutions better than the corresponding T0 serum

Substance: acetyl-CDGAVQPDGGQPAVRNER-amide (Ac-CDGAVQPDGGQPAVRNER-NH2) [Parv]
- antibody titre to the parvovirus peptide, immune serum samples compared with T0 sera (parvovirus peptide [2]): Non-detectable or less antibody titre to the parvovirus peptide than in the corresponding to sera
